From patent US9113629B2, “4-amino-6-(4-substituted-phenyl)-picolinates and 6-amino-2-(4-substituted-phenyl)-pyrimidine-4-carboxylates and their use as herbicides” (DOW AGROSCIENCES LLC, priority 2013, dated 2015)
Where two headings read alike, the source gives them in different places.

Experiments:
[1] = tested on: Key Broadleaf Weed and Crop Species; assay: Post-emergent Test II herbicidal activity (Table 5); type: in vivo; details: post-emergence, 336 h, post-emergent, 14 days after application; for pest or weed control at 70 g/ha: 70 g ai/ha; for pest or weed control at 140 g/ha: 140 g ai/ha
Outline: (§1)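 Greenhouse-grown plants at first or second true leaf stage were sprayed post-emergence with compound in acetone/DMSO-based aqueous spray containing crop oil concentrate and surfactant, at 187 L/ha, highest rate plus ½× to 1/16× dilutions. After 14 d, injury was scored visually versus untreated plants, 0 (none) to 100% (complete kill).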

[2] = tested on: Key Grass and Sedge Weeds as well as Grass Crops; assay: Post-emergent Test II herbicidal activity (Table 6); type: in vivo; details: post-emergence, 336 h; for pest or weed control at 70 g/ha: application rate 70 g ai/ha; for pest or weed control at 140 g/ha: application rate 140 g ai/ha
Outline: as §1

[3] = ABUTH: velvetleaf (Abutilon theophrasti), read-out: Visual Growth Reduction (%) 14 Days After Application ABUTH
[4] = AMARE: redroot pigweed (Amaranthus retroflexus), read-out: Visual Growth Reduction (%) 14 Days After Application AMARE
[5] = BRSNN: oilseed-rape, canola (Brassica napus), read-out: Visual Growth Reduction (%) 14 Days After Application BRSNN
[6] = CHEAL: lambsquarters (Chenopodium album), read-out: Visual Growth Reduction (%) 14 Days After Application CHEAL
[7] = EPHHL: wild poinsettia (Euphorbia heterophylla), read-out: Visual Growth Reduction (%) 14 Days After Application EPHHL
[8] = HELAN: sunflower (Helianthus annuus), read-out: Visual Growth Reduction (%) 14 Days After Application HELAN
[9] = VIOTR: wild pansy (Viola tricolor), read-out: Visual Growth Reduction (%) 14 Days After Application VIOTR
[10] = Triticum aestivum, TRZSS (wheat), read-out: Visual Growth Reduction (%) 14 Days After Application, TRZSS
[11] = CYPES: yellow nutsedge (Cyperus esculentus), read-out: Visual Growth Reduction (%) 14 Days After Application, CYPES
[12] = DIGSA: crabgrass (Digitaria sanguinalis), read-out: Visual Growth Reduction (%) 14 Days After Application, DIGSA
[13] = ECHCG: barnyardgrass (Echinochloa crus-galli), read-out: Visual Growth Reduction (%) 14 Days After Application, ECHCG
[14] = ORYSA: rice (Oryza sativa), read-out: Visual Growth Reduction (%) 14 Days After Application, ORYSA
[15] = SETFA: giant foxtail (Setaria faberi), read-out: Visual Growth Reduction (%) 14 Days After Application, SETFA
[16] = SORVU: grain sorghum (Sorghum vulgare), read-out: Visual Growth Reduction (%) 14 Days After Application, SORVU
[17] = ZEAMX: maize, corn (Zea mays), read-out: Visual Growth Reduction (%) 14 Days After Application, ZEAMX

## C=Cc1c(C(=O)O)nc(-c2ccc(C#N)cc2)c(F)c1N [Compound 150]
[1]; [3]
  pest or weed control at 70 g/ha: 45 to 59%
  pest or weed control at 140 g/ha: 60 to 74%
[1]; [4]
  pest or weed control at 70 g/ha: 95 to 100%
  pest or weed control at 140 g/ha: 95 to 100%
[1]; [5]
  pest or weed control at 70 g/ha: 45 to 59%
  pest or weed control at 140 g/ha: 60 to 74%
[1]; [6]
  pest or weed control at 70 g/ha: 85 to 94%
  pest or weed control at 140 g/ha: 85 to 94%
[1]; [7]
  pest or weed control at 70 g/ha: 95 to 100%
  pest or weed control at 140 g/ha: 95 to 100%
[1]; [8]
  pest or weed control at 70 g/ha: 95 to 100%
  pest or weed control at 140 g/ha: 95 to 100%
[1]; [9]
  pest or weed control at 70 g/ha: 0 to 29%
  pest or weed control at 140 g/ha: 0 to 29%
[2]; [10]
  pest or weed control at 70 g/ha: 30 to 44%
  pest or weed control at 140 g/ha: 45 to 59%
[2]; [11]
  pest or weed control at 70 g/ha: 0 to 29%
  pest or weed control at 140 g/ha: 45 to 59%
[2]; [12]
  pest or weed control at 70 g/ha: 0 to 29%
  pest or weed control at 140 g/ha: 0 to 29%
[2]; [13]
  pest or weed control at 70 g/ha: 0 to 29%
  pest or weed control at 140 g/ha: 0 to 29%
[2]; [14]
  pest or weed control at 70 g/ha: 0 to 29%
  pest or weed control at 140 g/ha: 0 to 29%
[2]; [15]
  pest or weed control at 70 g/ha: 0 to 29%
  pest or weed control at 140 g/ha: 60 to 74%
[2]; [16]
  pest or weed control at 70 g/ha: 45 to 59%
  pest or weed control at 140 g/ha: 45 to 59%
[2]; [17]
  pest or weed control at 70 g/ha: 45 to 59%
  pest or weed control at 140 g/ha: 60 to 74%
